Source: US20250213665A1, “METHODS FOR INHIBITING TRAINED IMMUNITY WITH NANOBIOLOGIC COMPOSITIONS” (Icahn School of Medicine at Mount Sinai, priority 2017, published 2025)

Assay: Recovery and hydrolysis of the (pro-)drugs in nanobiologics
Assay type: physicochemical
Conditions: 4° C. in PBS
Procedure: From 10 mg/ml stock solutions in chloroform, 1-palmitoyl-2-oleoyl-sn-glycero-3-phosphocholine (POPC, 250 μL), 1-palmitoyl-2-hydroxy-sn-glycero-3-phosphocholine (PHPC, 65 μL), cholesterol (15 μL), tricaprylin (1000 μL) and (pro-)drug (65 μL), were combined in a 20 ml vial and dried under vacuum. The resulting film was redissolved in a acetonitrile:methanol mixture (95%: 5%, 3 mL total volume). Separately, a solution of ApoA-I protein in PBS (0.1 mg/ml) was prepared. Using a microfluidic set-up, both solutions were simultaneously injected into a herringbone mixer, with a flow rate of 0.75 ml/min for the lipid solution and a rate of 6 ml/min for the ApoA-I solution. The obtained solution was concentrated by centrifugal filtration using a […] Vivaspin tube at 4000 rpm to obtain a volume of 5 mL. […]
(Pro-)drug recovery and hydrolysis were determined using the following procedure: an aliquot (200 μL) of the particle solution was dried under vacuum, acetonitrile (600 μL) was added and the suspension was sonicated for 20 minutes. The suspension was centrifuged to precipitate any solids and the remaining solution was analyzed using HPLC; except for the malonate derivatives which were analyzed using SFC-MS, and Dimethylmalonate which was analyzed by GC-MS.

hydrolysis of the (pro-)drugs in the nanobiologics over time: hydrolysis was observed
SMILES: CCCCCCCCCCCCCCCCCC(=O)O[C@@H]1CC[C@@H](C[C@@H](C)[C@@H]2CC(=O)[C@H](C)/C=C(\C)[C@@H](O)[C@@H](OC)C(=O)[C@H](C)C[C@H](C)/C=C/C=C/C=C(\C)[C@@H](OC)C[C@@H]3CC[C@@H](C)[C@@](O)(O3)C(=O)C(=O)N3CCCC[C@H]3C(=O)O2)C[C@H]1OC [Cis-Rapamycin]
